Results: ChEMBL document CHEMBL3580626, “Scaffold hopping of potential anti-tumor agents by WEGA: a shape-based approach” (Medchemcomm, 2014)
pIC50: −log10 of the molar value.

Key:
[1] = system: HepG2; test: Cytotoxicity against human HepG2 cells assessed as reduction in cell viability after 48 hrs by CCK8 assay; assay type: functional, cell-based; conditions: HepG2, 48 h; for IC50: read-out: pIC50 (converted)
[2] = Cytotoxicity against human LO2 cells assessed as reduction in cell viability after 48 hrs by CCK8 assay; assay type: cell-based; conditions: L02, 48 h

| Structure (SMILES) | IC50 [1] | pIC50 [2] | pIC50 ([1]; read-out: IC50) |
| --- | --- | --- | --- |
| CC(=O)N1c2ccccc2CCc2ccc(N)cc21 | > 158 µM | – | – |
| COC1=Cc2ccccc2N(C(N)=O)c2ccccc21 | > 158 µM | – | – |
| CC(=O)N1c2ccccc2CCc2ccc(Cl)cc21 | > 158 µM | – | – |
| COC1=Cc2ccccc2Nc2ccccc21 | 70.8 µM | – | – |
| CC(CN1c2ccccc2S(=O)(=O)c2ccccc21)N(C)C (stereo unspecified) | > 158 µM | – | – |
| CCN1c2ccccc2CCc2ccc(Cl)cc21 | > 158 µM | – | – |
| c1ccc2c(c1)[nH]c1cccc(OCC3CO3)c12 (stereo unspecified) | 17 µM | < 3.80 | – |
| O=C(Cl)N1c2ccccc2C=Cc2ccccc21 | 33.9 µM | – | – |
| Oc1cccc2[nH]c3ccccc3c12 | 123 µM | – | – |
| c1ccc2c(c1)CCc1ccccc1N2 | > 158 µM | – | – |
| NC(=O)N1c2ccccc2C=Cc2ccccc21 [CARBAMAZEPINE] | > 158 µM | – | – |
| CC(C(=O)O)c1ccc2c(c1)[nH]c1ccc(Cl)cc12 (stereo unspecified) [CARPROFEN] | 166 µM | – | – |
| COc1ccccc1OCCNCC(O)COc1cccc2[nH]c3ccccc3c12 (stereo unspecified) [CARVEDILOL] | 17.4 µM | 4.07 | – |
| CN1CCN(C2=Nc3cc(Cl)ccc3Nc3ccccc32)CC1 [CLOZAPINE] | 47.9 µM | – | – |
| OCCN1CCN(CCCN2c3ccccc3Sc3ccc(C(F)(F)F)cc32)CC1 [FLUPHENAZINE] | 4.37 µM | < 3.80 | 5.36 |
| C1=Cc2ccccc2Nc2ccccc21 [IMINOSTILBENE] | > 158 µM | – | – |
| CC(CN(C)C)CN1c2ccccc2Sc2ccccc21 (stereo unspecified) [METHYLPROMAZINE] | 61.7 µM | – | – |
| NC(=O)N1c2ccccc2CC(=O)c2ccccc21 [OXCARBAZEPINE] | 19.5 µM | < 3.80 | – |
| OCCN1CCN(CCCN2c3ccccc3Sc3ccc(Cl)cc32)CC1 [PERPHENAZINE] | 16.2 µM | < 3.80 | – |
| c1ccc2c(c1)Nc1ccccc1O2 [PHENOXAZINE] | 204 µM | – | – |
